The assay deals with T1, Eyes absent homolog 2 [253-538] (Human, UniProt O00167).
T1 construct: 253-538
T1 sequence (O00167 whole entry): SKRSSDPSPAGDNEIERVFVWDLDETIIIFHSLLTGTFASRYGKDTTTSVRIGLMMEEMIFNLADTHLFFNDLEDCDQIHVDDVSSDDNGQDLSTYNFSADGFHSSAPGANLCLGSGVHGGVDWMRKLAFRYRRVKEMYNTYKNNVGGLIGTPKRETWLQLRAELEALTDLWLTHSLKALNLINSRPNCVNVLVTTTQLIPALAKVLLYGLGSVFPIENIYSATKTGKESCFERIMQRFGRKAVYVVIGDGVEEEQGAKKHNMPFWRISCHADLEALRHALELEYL
As to the kind of experiment: Eya Phosphatase Assay. To be noted: pH 6.5; 25 °C. How it is done: Eya activity was measured in 50-μl reactions using black, 96-well, half-volume microtiter plates (Greiner Bio-one) with the substrate OMFP (3-O-methylfluoresceinphosphate, Sigma-Aldrich), which is converted to a fluorescent product OMF upon dephosphorylation. […] Reactions were started by the addition of OMFP, preceded for 1 h at room temperature followed by terminating the reaction with the addition of 75mMEDTA.

As usually defined, the IC50 is the midpoint of a concentration-inhibition curve. Low readings indicate inhibition by little substance, high ones a need for much substance. `O=C(N/N=C/c1ccc(Sc2ccccn2)s1)c1cccc(F)c1` [NCGC00249327] returned an IC50 of 2.9 µM.
